Data taken from ChEMBL document CHEMBL1201862, “PubChem BioAssay data set” (2004).
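All cell lines were grown in 96-well plates and treated with compound for 48 hours. GI50: concentration for 50% inhibition of growth.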 Activity calls are given as the source filed them. Cut-off read from the data, not from the text of the source: active = GI50 up to about 1.1 µM and inactive = higher.

Experiments:
Assay in all cases: inhibition of tumour cell growth, NCI panel, 48 h
HCT-15 = system: HCT-15
CAKI-1 = system: CAKI-1
NCI-H23 = system: NCI-H23
MDA-N = system: MDA-N
SK-MEL-2 = system: SK-MEL-2
NCI-H522 = system: NCI-H522
OVCAR-3 = system: OVCAR-3
Malme-3M = system: Malme-3M
UO-31 = system: UO-31
UACC-257 = system: UACC-257
PC-3 = system: PC-3
TK-10 = system: TK-10
MDA-MB-435 = system: MDA-MB-435
786-0 = system: 786-0
MCF7 = system: MCF7
KM12 = system: KM12
SNB-19 = system: SNB-19
OVCAR-4 = system: OVCAR-4
NCI-H460 = system: NCI-H460
RXF 393 = system: RXF 393

| Compound | GI50 (HCT-15) [µM] | GI50 (CAKI-1) | GI50 (NCI-H23) | GI50 (MDA-N) | GI50 (SK-MEL-2) | GI50 (NCI-H522) | GI50 (OVCAR-3) | GI50 (Malme-3M) | GI50 (UO-31) | GI50 (UACC-257) | GI50 (PC-3) | GI50 (TK-10) | GI50 (MDA-MB-435) | GI50 (786-0) | GI50 (MCF7) | GI50 (KM12) | GI50 (SNB-19) | GI50 (OVCAR-4) | GI50 (NCI-H460) | GI50 (RXF 393) |
| --- | --- | --- | --- | --- | --- | --- | --- | --- | --- | --- | --- | --- | --- | --- | --- | --- | --- | --- | --- | --- |
| CC1(CC2=C(C(=O)NCCO[Si](C)(C)C(C)(C)C)C3(OCCO3)C2=O)OCCO1 | > 100 | > 100 µM (inactive) | 63.5 µM (inactive) | > 100 µM (inactive) | > 100 µM (inactive) | 28.4 µM (inactive) | > 100 µM (inactive) | 20.4 µM (inactive) | > 100 µM (inactive) | > 100 µM (inactive) | > 100 µM (inactive) | > 100 µM (inactive) | > 100 µM (inactive) | > 100 µM (inactive) | > 100 µM (inactive) | > 100 µM (inactive) | > 100 µM (inactive) | > 100 µM (inactive) | > 100 µM (inactive) | – |
| COc1ccc(OC)c(N2C(=O)CSC2c2cc(OC)c(OC)c(OC)c2)c1 (stereo unspecified) | 98.4 | > 100 µM (inactive) | > 100 µM (inactive) | 33.4 µM (inactive) | > 100 µM (inactive) | 40.6 µM (inactive) | > 100 µM (inactive) | > 100 µM (inactive) | > 100 µM (inactive) | 89.5 µM (inactive) | > 100 µM (inactive) | > 100 µM (inactive) | 29.8 µM (inactive) | > 100 µM (inactive) | 71.1 µM (inactive) | 81.7 µM (inactive) | > 100 µM (inactive) | > 100 µM (inactive) | > 100 µM (inactive) | – |
| O=C1C=CC2CCC1C2 (stereo unspecified) | 18.2 | 27.5 µM (inactive) | 20.6 µM (inactive) | 25 µM (inactive) | 21.4 µM (inactive) | 17.7 µM (inactive) | 43.1 µM (inactive) | 14.6 µM (inactive) | 31.2 µM (inactive) | 46.8 µM (inactive) | 45 µM (inactive) | 66.1 µM (inactive) | 17.2 µM (inactive) | 40.9 µM (inactive) | 31.1 µM (inactive) | 32.4 µM (inactive) | 28.4 µM (inactive) | – | 30.6 µM (inactive) | – |
| COc1cc(C2C(C(=O)Nc3ccc([N+](=O)[O-])cc3)=C(C)NC(C)=C2C(=O)Nc2ccc([N+](=O)[O-])cc2)ccc1O | 19.1 | 31 µM (inactive) | 26.7 µM (inactive) | – | 15.9 µM (inactive) | 15.8 µM (inactive) | 22.7 µM (inactive) | 20.8 µM (inactive) | 19.1 µM (inactive) | 24.2 µM (inactive) | – | 18.2 µM (inactive) | – | 29.1 µM (inactive) | – | 18.7 µM (inactive) | 25.7 µM (inactive) | 27 µM (inactive) | 23.3 µM (inactive) | 19.5 µM (inactive) |
| C=C1C(=O)OC2C1CC(OC(C)=O)/C(C)=C/CCC1(C)OC21 (stereo unspecified) | > 100 | > 100 µM (inactive) | > 100 µM (inactive) | > 100 µM (inactive) | > 100 µM (inactive) | > 100 µM (inactive) | > 100 µM (inactive) | > 100 µM (inactive) | > 100 µM (inactive) | > 100 µM (inactive) | > 100 µM (inactive) | – | > 100 µM (inactive) | > 100 µM (inactive) | > 100 µM (inactive) | > 100 µM (inactive) | > 100 µM (inactive) | > 100 µM (inactive) | > 100 µM (inactive) | – |
| CN(C)C(=S)SCC(=O)Nc1ccccc1 | > 100 | > 100 µM (inactive) | > 100 µM (inactive) | > 100 µM (inactive) | > 100 µM (inactive) | 57.9 µM (inactive) | > 100 µM (inactive) | > 100 µM (inactive) | > 100 µM (inactive) | > 100 µM (inactive) | – | – | > 100 µM (inactive) | > 100 µM (inactive) | > 100 µM (inactive) | > 100 µM (inactive) | – | > 100 µM (inactive) | > 100 µM (inactive) | > 100 µM (inactive) |
| N#C/C(=C\c1cc2ccccc2c2ccccc12)c1ccccc1 | 5.24 | 7.76 µM (inactive) | > 30.5 µM (inactive) | – | 3.39 µM (inactive) | 5.83 µM (inactive) | 3.45 µM (inactive) | 4.86 µM (inactive) | 22.2 µM (inactive) | 9.62 µM (inactive) | – | > 29.7 µM (inactive) | – | 5.43 µM (inactive) | – | 5.98 µM (inactive) | 8.99 µM (inactive) | 11.2 µM (inactive) | 4.67 µM (inactive) | 5.66 µM (inactive) |
| COc1cc2c(cc1OC)C1c3ccccc3CCN1CCC2.[O-][Cl+3]([O-])([O-])O (stereo unspecified) | > 100 | > 100 µM (inactive) | – | > 100 µM (inactive) | – | – | > 100 µM (inactive) | > 100 µM (inactive) | 48.4 µM (inactive) | > 100 µM (inactive) | > 100 µM (inactive) | > 100 µM (inactive) | 83.6 µM (inactive) | > 100 µM (inactive) | > 100 µM (inactive) | > 100 µM (inactive) | > 100 µM (inactive) | – | – | – |
| c1ccc2c(c1)sc1c3cnccc3ccc21 | > 100 | 43.3 µM (inactive) | > 100 µM (inactive) | – | > 100 µM (inactive) | > 100 µM (inactive) | > 100 µM (inactive) | 66.8 µM (inactive) | > 100 µM (inactive) | 56.6 µM (inactive) | – | 51.2 µM (inactive) | > 100 µM (inactive) | > 100 µM (inactive) | 24.1 µM (inactive) | 46.6 µM (inactive) | > 100 µM (inactive) | > 100 µM (inactive) | 24.9 µM (inactive) | – |
| CN(C)CCC(CCN(C)C)=NOC(=O)c1ccccc1 | > 100 | > 100 µM (inactive) | > 100 µM (inactive) | – | > 100 µM (inactive) | > 100 µM (inactive) | > 100 µM (inactive) | > 100 µM (inactive) | > 100 µM (inactive) | > 100 µM (inactive) | – | > 100 µM (inactive) | – | > 100 µM (inactive) | – | > 100 µM (inactive) | > 100 µM (inactive) | > 100 µM (inactive) | > 100 µM (inactive) | > 100 µM (inactive) |
| COc1ccccc1NC(=S)N/N=C/c1cccc(C)n1 | 2.31 | 4.75 µM (inactive) | 5.83 µM (inactive) | 4.17 µM (inactive) | 5.64 µM (inactive) | 0.279 µM (active) | 1.26 µM (inactive) | 6.24 µM (inactive) | 3.57 µM (inactive) | 3.33 µM (inactive) | 4.5 µM (inactive) | 8.99 µM (inactive) | 5.16 µM (inactive) | 2.9 µM (inactive) | 3.78 µM (inactive) | 6.25 µM (inactive) | 10.9 µM (inactive) | 14.2 µM (inactive) | 2.49 µM (inactive) | – |
| N#CCCNCCN(CCN(C(=O)Nc1ccccc1)c1ccccc1)C(=O)Nc1ccccc1 | 41.5 | – | 33.2 µM (inactive) | 47 µM (inactive) | 38.4 µM (inactive) | 24.8 µM (inactive) | – | 23.4 µM (inactive) | 26.4 µM (inactive) | 15.7 µM (inactive) | 57.3 µM (inactive) | 29.5 µM (inactive) | – | 37.1 µM (inactive) | 37.8 µM (inactive) | – | 83.2 µM (inactive) | – | 37.9 µM (inactive) | 31.7 µM (inactive) |
| Brc1ccc(/C=N/C23CC4CC(CC(C4)C2)C3)cc1 | > 100 | > 100 µM (inactive) | > 100 µM (inactive) | – | > 100 µM (inactive) | > 100 µM (inactive) | > 100 µM (inactive) | > 100 µM (inactive) | > 100 µM (inactive) | > 100 µM (inactive) | – | > 100 µM (inactive) | – | > 100 µM (inactive) | – | > 100 µM (inactive) | > 100 µM (inactive) | > 100 µM (inactive) | > 100 µM (inactive) | > 100 µM (inactive) |
| COc1cc(OC)c2c(c1-c1ccc(C)cc1)CC(C)N(Cc1ccccc1)[C@H]2C (stereo partly specified) | 35.9 | 63.8 µM (inactive) | 35 µM (inactive) | 33.7 µM (inactive) | – | 33.5 µM (inactive) | – | 19.3 µM (inactive) | 47.9 µM (inactive) | 25.2 µM (inactive) | 36.1 µM (inactive) | 38.3 µM (inactive) | 33.3 µM (inactive) | 33.7 µM (inactive) | 28.5 µM (inactive) | 28.2 µM (inactive) | 67.9 µM (inactive) | – | 37.7 µM (inactive) | – |
| Cn1cc(C(=O)NCCC(=N)N)cc1NC(=O)C1=[N+](C)C=C(NC(=O)c2cccc(C(=O)NC3=CC(C(=O)Nc4cc(C(=O)NCCC(=N)N)cn4C)=[N+](C)C3)c2)C1 | > 100 | > 100 µM (inactive) | > 100 µM (inactive) | – | > 100 µM (inactive) | > 100 µM (inactive) | > 100 µM (inactive) | 24.8 µM (inactive) | > 100 µM (inactive) | 93.1 µM (inactive) | – | > 100 µM (inactive) | – | 37.8 µM (inactive) | – | 36.3 µM (inactive) | > 100 µM (inactive) | > 100 µM (inactive) | > 100 µM (inactive) | 35.3 µM (inactive) |
| O=C(O)/C=C/C(=O)O [FUMARIC ACID] | > 100 | > 100 µM (inactive) | > 100 µM (inactive) | > 100 µM (inactive) | > 100 µM (inactive) | > 100 µM (inactive) | > 100 µM (inactive) | > 100 µM (inactive) | > 100 µM (inactive) | > 100 µM (inactive) | > 100 µM (inactive) | > 100 µM (inactive) | > 100 µM (inactive) | > 100 µM (inactive) | > 100 µM (inactive) | > 100 µM (inactive) | > 100 µM (inactive) | > 100 µM (inactive) | > 100 µM (inactive) | – |
